For orientation: Ki means the dissociation constant of the complex between target and ligand, obtained from inhibition or displacement.

The values below come from US6559140B2 (Abbott Laboratories, priority 2000, dated 2003).

Chain of H3 receptor (Q9QYN8 1-397 isoform Q9QYN8-3): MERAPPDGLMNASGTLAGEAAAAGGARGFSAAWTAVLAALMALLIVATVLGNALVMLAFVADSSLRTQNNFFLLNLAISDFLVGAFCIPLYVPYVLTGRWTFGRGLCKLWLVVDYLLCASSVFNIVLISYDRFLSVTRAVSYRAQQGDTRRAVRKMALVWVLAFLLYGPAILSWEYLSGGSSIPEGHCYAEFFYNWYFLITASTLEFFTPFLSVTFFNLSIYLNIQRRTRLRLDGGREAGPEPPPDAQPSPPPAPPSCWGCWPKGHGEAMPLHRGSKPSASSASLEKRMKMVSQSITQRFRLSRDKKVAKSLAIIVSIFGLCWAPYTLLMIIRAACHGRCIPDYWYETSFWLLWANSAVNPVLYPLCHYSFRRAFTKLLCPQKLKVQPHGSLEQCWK

The test concerns the target H3 receptor (Rattus norvegicus, UniProt Q9QYN8). Nature of the test: H3 receptor binding, (3H)-N-α-methylhistamine displacement in rat cortical membranes. As to conditions: male Sprague-Dawley rat brain cortical membranes, 30 minutes at 25° C., Cheng-Prusoff, geometric mean values of 2-10 separate experiments. How it is done:
Briefly, male Sprague-Dawley rat brain cortices were homogenized (1 g tissue/10 mL buffer) in 50 mM Tris-HCl/5 mM EDTA containing protease inhibitor cocktail (Calbiochem) using a polytron set at 20,500 rpm. Homogenates were centrifuged for 20 minutes at 40,000×g. The supernatant was decanted, and pellets were weighed. The pellet was resuspended by polytron homogenization in 40 mL 50 mM Tris-HCl/5 mM EDTA with protease inhibitors and centrifuged for 20 minutes at 40,000×g. […] Test compounds were added to the incubation mixtures prior to initiating the incubation assay by addition of the membranes. Thioperamide (3 μM) was used to determine nonspecific binding. Binding incubations were conducted for 30 minutes at 25° C. and terminated by addition of 2 mL of ice cold 50 mM Tris-HCl (H 7.7) and filtration through 0.3% polyethylenimine-soaked Unifilter plates (Packard). These filters were washed 4 additional times with 2 mL of ice-cold 50 mM Tris-HCl and dried for 1 hour. Radioactivity was determined using liquid scintillation counting techniques. Results were analyzed by Hill transformation and Ki values were determined using the Cheng-Prusoff equation.
Consider `Cc1cccc(-c2nc(-c3ccc(OCCCN4CCN(C(=O)[C@@H](C)NC(=O)c5cccs5)CC4)cc3F)no2)c1` [Example 187, N-{(1R)-2-[4-(3-{3-fluoro-4-[5-(3-methylphenyl)-1,2,4-oxadiazol-3-yl]phenoxy}propyl)-1-piperazinyl]-1-methyl-2-oxoethyl}-2-thiophenecarboxamide], for which the Ki worked out at 26.2 nM. That is a double-digit nanomolar value.
With `CC(C)CCc1nc(-c2ccc(OCCCN3CCCN(C(=O)[C@@H](C)NC(=O)c4ccco4)CC3)cc2F)no1` [Example 142, N-[(1R)-2-(4-{3-[3-fluoro-4-(5-isopentyl-1,2,4-oxadiazol-3-yl)phenoxy]propyl}-1,4-diazepan-1-yl)-1-methyl-2-oxoethyl]-2-furamide] the figure was 0.72 nM.
As for `C[C@@H](NC(=O)c1ccco1)C(=O)N1CCCN(CCCOc2ccc(-c3noc(CCc4ccccc4)n3)c(F)c2)CC1` [Example 152, N-{(1R)-2-[4-(3-{3-fluoro-4-[5-(2-phenylethyl)-1,2,4-oxadiazol-3-yl]phenoxy}propyl)-1,4-diazepan-1-yl]-1-methyl-2-oxoethyl}-2-furamide], the figure is 1.01 nM; as for `C[C@@H](NC(=O)c1ccc(N(C)C)cc1)C(=O)N1CCN(CCCOc2ccc(-c3noc(CC4CCCC4)n3)c(F)c2)CC1` [Example 180, N-{(1R)-2-[4-(3-{4-[5-(cyclopentylmethyl)-1,2,4-oxadiazol-3-yl]-3-fluorophenoxy}propyl)-1-piperazinyl]-1-methyl-2-oxoethyl}-4-(dimethylamino)benzamide], 2.37 nM.
As for `O=C(NCCC(=O)N1CCN(CCCOc2ccc(-c3noc(-c4ccccc4)n3)c(F)c2)CC1)c1ccsc1` [Example 154, N-[3-(4-{3-[3-fluoro-4-(5-phenyl-1,2,4-oxadiazol-3-yl)phenoxy]propyl}-1-piperazinyl)-3-oxopropyl]-3-thiophenecarboxamide], the figure is 25 nM.
`C[C@@H](NC(=O)CCN1CCOCC1)C(=O)N1CCN(CCCOc2ccc(-c3noc(CC4CCCC4)n3)c(F)c2)CC1` [Example 172, N-{(1R)-2-[4-(3-{4-[5-(cyclopentylmethyl)-1,2,4-oxadiazol-3-yl]-3-fluorophenoxy}propyl)-1-piperazinyl]-1-methyl-2-oxoethyl}-3-(4-morpholinyl)propanamide] registered a Ki of 1.22 nM.
As for `Cc1ccccc1C(=O)N[C@H](C)C(=O)N1CCN(CCCOc2ccc(C(=O)C3CC3)cc2)CC1` [Example 192, N-[(1R)-2-(4-{3-[4-(cyclopropylcarbonyl)phenoxy]propyl}-1-piperazinyl)-1-methyl-2-oxoethyl]-2-methylbenzamide], the figure is 1 nM.
As for `C[C@@H](NC(=O)c1ccccc1Cl)C(=O)N1CCN(CCCOc2ccc(-c3noc(CC4CCCC4)n3)c(F)c2)CC1` [Example 182, 2-chloro-N-{(1R)-2-[4-(3-{4-[5-(cyclopentylmethyl)-1,2,4-oxadiazol-3-yl]-3-fluorophenoxy}propyl)-1-piperazinyl]-1-methyl-2-oxoethyl}benzamide], the figure is 2.78 nM; as for `COc1ccc(-c2nc(-c3ccc(OCCCN4CCN(C(=O)[C@@H](C)NC(=O)c5cccs5)CC4)cc3F)no2)cc1` [Example 198, N-{(1R)-2-[4-(3-{3-fluoro-4-[5-(4-methoxyphenyl)-1,2,4-oxadiazol-3-yl]phenoxy}propyl)-1-piperazinyl]-1-methyl-2-oxoethyl}-2-thiophenecarboxamide], 25.9 nM; as for `C[C@@H](NC(=O)c1cccs1)C(=O)N1CCN(CCCOc2ccc(-c3noc(-c4cccc(C#N)c4)n3)c(F)c2)CC1` [Example 188, N-{(1R)-2-[4-(3-{4-[5-(3-cyanophenyl)-1,2,4-oxadiazol-3-yl]-3-fluorophenoxy}propyl)-1-piperazinyl]-1-methyl-2-oxoethyl}-2-thiophenecarboxamide], 4.23 nM.
On to `C[C@H](NC(=O)OC(C)(C)C)c1nc(-c2ccc(OCCCN3CCCN(C(=O)[C@@H](C)NC(=O)c4ccco4)CC3)cc2F)no1` [Example 146, Tert-butyl (1S)-1-{3-[2-fluoro-4-(3-{4-[(2R)-2-(2-furoylamino)propanoyl]-1,4-diazepan-1-yl}propoxy)phenyl]-1,2,4-oxadiazol-5-yl}ethylcarbamate], for which the inhibition constant (Ki) stood at 9.03 nM. This Ki is about 2.1-fold higher than that of the molecule before.
With `C[C@@H](NC(=O)c1cccnc1)C(=O)N1CCN(CCCOc2ccc(-c3noc(CC4CCCC4)n3)c(F)c2)CC1` [Example 181, N-{(1R)-2-[4-(3-{4-[5-(cyclopentylmethyl)-1,2,4-oxadiazol-3-yl]-3-fluorophenoxy}propyl)-1-piperazinyl]-1-methyl-2-oxoethyl}nicotinamide] the figure was 1.67 nM.
With `C[C@@H](NC(=O)c1ccco1)C(=O)N1CCCN(CCCOc2ccc(-c3noc(-c4ccoc4)n3)c(F)c2)CC1` [Example 147, N-{(1R)-2-[4-(3-{3-fluoro-4-[5-(3-furyl)-1,2,4-oxadiazol-3-yl]phenoxy}propyl)-1,4-diazepan-1-yl]-1-methyl-2-oxoethyl}-2-furamide] the figure was 1.68 nM; with `C[C@@H](NC(=O)c1cccs1)C(=O)N1CCN(CCCOc2ccc(-c3noc(-c4cc(Cl)cc(Cl)c4)n3)c(F)c2)CC1` [Example 189, N-{(1R)-2-[4-(3-{4-[5-(3,5-dichlorophenyl)-1,2,4-oxadiazol-3-yl]-3-fluorophenoxy}propyl)-1-piperazinyl]-1-methyl-2-oxoethyl}-2-thiophenecarboxamide], 51.3 nM.
Molecule `C[C@@H](NC(=O)c1ccc(Oc2ccccc2)cc1)C(=O)N1CCN(CCCOc2ccc(C(=O)C3CC3)cc2)CC1` [Example 195] registered a Ki of 1.37 nM.
With `Cc1ccc(C(=O)N[C@H](C)C(=O)N2CCN(CCCOc3ccc(-c4noc(CC5CCCC5)n4)c(F)c3)CC2)cc1` [Example 173, N-{(1R)-2-[4-(3-{4-[5-(cyclopentylmethyl)-1,2,4-oxadiazol-3-yl]-3-fluorophenoxy}propyl)-1-piperazinyl]-1-methyl-2-oxoethyl}-4-methylbenzamide] the figure was 1.56 nM; with `C[C@H](CCOc1ccc(C(=O)C2CC2)cc1)N1CCN(C(=O)[C@@H](C)N)CC1` [Example 62, (4-(((3R)-3-(4-((2R)-2-aminopropanoyl)-1-piperazinyl)butyl)oxy)phenyl)(cyclopropyl)methanone], 1.46 nM.
In turn, `COc1cccc(C(=O)N[C@H](C)C(=O)N2CCN(CCCOc3ccc(C(=O)C4CC4)cc3)CC2)c1` [Example 193, N-[(1R)-2-(4-{3-[4-(cyclopropylcarbonyl)phenoxy]propyl}-1-piperazinyl)-1-methyl-2-oxoethyl]-3-methoxybenzamide] had a Ki of 1.11 nM.
With `N[C@H](COCc1ccccc1)C(=O)N1CCN(CCCOc2ccc(C(=O)C3CC3)cc2)CC1` [Example 75, (4-(3-(4-((2R)-2-amino-3-(benzyloxy)propanoyl)-1-piperazinyl)propoxy)phenyl)(cyclopropyl)methanone] the figure was 4.67 nM; with `C[C@@H](NC(=O)c1ccc(F)cc1)C(=O)N1CCN(CCCOc2ccc(-c3noc(CC4CCCC4)n3)c(F)c2)CC1` [Example 174, N-{(1R)-2-[4-(3-{4-[5-(cyclopentylmethyl)-1,2,4-oxadiazol-3-yl]-3-fluorophenoxy}propyl)-1-piperazinyl]-1-methyl-2-oxoethyl}-4-fluorobenzamide], 0.81 nM; with `Cc1cc(C(=O)NCCC(=O)N2CCN(CCCOc3ccc(-c4noc(-c5ccccc5)n4)c(F)c3)CC2)c(C)o1` [Example 157, N-[3-(4-{3-[3-fluoro-4-(5-phenyl-1,2,4-oxadiazol-3-yl)phenoxy]propyl}-1-piperazinyl)-3-oxopropyl]-2,5-dimethyl-3-furamide], 46.1 nM.
With `C[C@@H](NC(=O)OC(C)(C)C)C(=O)N1CCN(CCCOc2ccc(C(=O)C3CC3)cc2)CC1` [Example 64, Tert-butyl (1R)-2-(4-(3-(4-(cyclopropylcarbonyl)phenoxy)propyl)-1-piperazinyl)-1-methyl-2-oxoethylcarbamate] the figure was 2.07 nM; with `Cn1cnc(C[C@@H](N)C(=O)N2CCN(CCCOc3ccc(C(=O)C4CC4)cc3)CC2)c1` [Example 88, (4-(3-(4-((2R)-2-amino-3-(1-methyl-1H-imidazol-4-yl)propanoyl)-1-piperazinyl)propoxy)phenyl)(cyclopropyl)methanone], 6.56 nM.
As for `C[C@@H](N)C(=O)N1CCCN(CCCOc2ccc(-c3noc(CC4CCCC4)n3)c(F)c2)CC1` [Example 169, (2R)-1-[4-(3-{4-[5-(cyclopentylmethyl)-1,2,4-oxadiazol-3-yl]-3-fluorophenoxy}propyl)-1,4-diazepan-1-yl]-1-oxo-2-propanamine], the figure is 5.63 nM.
In the case of `C[C@@H](NC(=O)c1ccc(C(=O)O)cc1)C(=O)N1CCN(CCCOc2ccc(-c3noc(CC4CCCC4)n3)c(F)c2)CC1` [Example 186, 4-[({(1R)-2-[4-(3-{4-[5-(cyclopentylmethyl)-1,2,4-oxadiazol-3-yl]-3-fluorophenoxy}propyl)-1-piperazinyl]-1-methyl-2-oxoethyl}amino)carbonyl]benzoic acid], the Ki came to 8.82 nM.
`C[C@@H](NC(=O)c1cccs1)C(=O)N1CCN(CCCOc2ccc(-c3noc(-c4ccccc4)n3)c(F)c2)CC1` [Example 159, N-[(1R)-2-(4-{3-[3-fluoro-4-(5-phenyl-1,2,4-oxadiazol-3-yl)phenoxy]propyl}-1-piperazinyl)-1-methyl-2-oxoethyl]-2-thiophenecarboxamide] had a Ki of 4.98 nM. Compared with the last molecule, the Ki is about 1.8-fold lower.
